Measurements as given in the NIST ThermoML archive (doi:10.1021/je300799f).

Assay: xn = mol fraction of the nth substance listed
Details: 101 kPa, Liquid, Vibrating tube method

CCCC(=O)OC [methyl butanoate] + CCCCCCCCC
Details | mass density [kg/m3]
288.15 K, x1 = 0.0544 | 727.14
288.15 K, x1 = 0.0804 | 729.99
288.15 K, x1 = 0.1647 | 739.66
288.15 K, x1 = 0.2172 | 746.06
288.15 K, x1 = 0.2378 | 748.63
288.15 K, x1 = 0.2963 | 756.43
288.15 K, x1 = 0.3419 | 762.85
288.15 K, x1 = 0.3986 | 771.19
288.15 K, x1 = 0.4425 | 778.04
288.15 K, x1 = 0.5007 | 787.63
288.15 K, x1 = 0.5488 | 796.09
288.15 K, x1 = 0.604 | 806.21
288.15 K, x1 = 0.6553 | 816.39
288.15 K, x1 = 0.6959 | 824.67
288.15 K, x1 = 0.7507 | 836.81
288.15 K, x1 = 0.8114 | 850.96
288.15 K, x1 = 0.8553 | 862.13
288.15 K, x1 = 0.8988 | 873.46
288.15 K, x1 = 0.9507 | 888.13
288.15 K, x1 = 1 | 903.31
298.15 K, x1 = 0.0495 | 718.76
298.15 K, x1 = 0.0998 | 724.04
298.15 K, x1 = 0.1729 | 732.49
298.15 K, x1 = 0.1935 | 734.88
298.15 K, x1 = 0.2473 | 741.54
298.15 K, x1 = 0.3035 | 748.92
298.15 K, x1 = 0.3558 | 756.23
298.15 K, x1 = 0.4462 | 769.69
298.15 K, x1 = 0.5497 | 786.99
298.15 K, x1 = 0.6465 | 805.02
298.15 K, x1 = 0.7509 | 826.86
298.15 K, x1 = 0.7772 | 832.78
298.15 K, x1 = 0.8038 | 839.14
298.15 K, x1 = 0.9052 | 864.6
298.15 K, x1 = 0.953 | 878.19
298.15 K, x1 = 1 | 892.31
308.15 K, x1 = 0.0554 | 711.45
308.15 K, x1 = 0.1002 | 716.1
308.15 K, x1 = 0.1653 | 723.29
308.15 K, x1 = 0.2108 | 728.63
308.15 K, x1 = 0.2545 | 734.04
308.15 K, x1 = 0.3082 | 740.93
308.15 K, x1 = 0.3598 | 748.08
308.15 K, x1 = 0.409 | 755.11
308.15 K, x1 = 0.4594 | 762.76
308.15 K, x1 = 0.4993 | 769.14
308.15 K, x1 = 0.5504 | 777.76
308.15 K, x1 = 0.6001 | 786.6
308.15 K, x1 = 0.6482 | 795.68
308.15 K, x1 = 0.6945 | 804.91
308.15 K, x1 = 0.7463 | 815.78
308.15 K, x1 = 0.7964 | 827.07
308.15 K, x1 = 0.8451 | 838.68
308.15 K, x1 = 0.8948 | 851.33
308.15 K, x1 = 0.9497 | 866.34
308.15 K, x1 = 1 | 881.19
318.15 K, x1 = 0.0234 | 700.32
318.15 K, x1 = 0.0731 | 705.17
318.15 K, x1 = 0.1033 | 708.28
318.15 K, x1 = 0.1552 | 713.83
318.15 K, x1 = 0.1993 | 718.91
318.15 K, x1 = 0.2571 | 725.77
318.15 K, x1 = 0.3123 | 732.79
318.15 K, x1 = 0.3568 | 738.79
318.15 K, x1 = 0.4135 | 746.74
318.15 K, x1 = 0.4555 | 753.07
318.15 K, x1 = 0.5093 | 761.51
318.15 K, x1 = 0.5565 | 769.3
318.15 K, x1 = 0.6043 | 777.7
318.15 K, x1 = 0.6544 | 787.04
318.15 K, x1 = 0.7067 | 797.4
318.15 K, x1 = 0.7541 | 807.31
318.15 K, x1 = 0.8037 | 818.4
318.15 K, x1 = 0.8594 | 831.69
318.15 K, x1 = 0.9068 | 843.76
318.15 K, x1 = 0.9511 | 855.91
318.15 K, x1 = 1 | 870.06
328.15 K, x1 = 0.0272 | 692.57
328.15 K, x1 = 0.0562 | 695.34
328.15 K, x1 = 0.078 | 697.49
328.15 K, x1 = 0.1041 | 700.12
328.15 K, x1 = 0.1502 | 704.97
328.15 K, x1 = 0.2023 | 710.73
328.15 K, x1 = 0.2654 | 718.16
328.15 K, x1 = 0.3073 | 723.36
328.15 K, x1 = 0.3624 | 730.61
328.15 K, x1 = 0.412 | 737.45
328.15 K, x1 = 0.4567 | 744
328.15 K, x1 = 0.5083 | 751.95
328.15 K, x1 = 0.5549 | 759.51
328.15 K, x1 = 0.6157 | 770.1
328.15 K, x1 = 0.6554 | 777.42
328.15 K, x1 = 0.7027 | 786.49
328.15 K, x1 = 0.749 | 795.99
328.15 K, x1 = 0.8511 | 819.04
328.15 K, x1 = 0.9051 | 832.64
328.15 K, x1 = 0.9506 | 844.76
328.15 K, x1 = 1 | 858.8
